The values that follow are results of earlier work, collected in US20230338329A1, “C[…] COMPOSITION AND METHOD OF MANUFACTURING” (priority 2022, published 2023).

For the series the following is noted: hydrophilic-lipophilic balance value.
Turning to alkyl phenyl polyoxyethylene ether, the HLB is given as 14.5.

For the molecule `CCCCCCCCCCCCOS(=O)(=O)[O-].[Na+]` [sodium lauryl sulfate], the HLB is 40. As for Sorbitan monooleate [Span 80], the HLB was 4.9. polyoxyethylene sorbitan monooleate: the HLB was 15.
